# Tests used:
# [1] = Stress studies: stability of tablets made with stressed VEL SSD/VOX SSD (water, residual solvent, peroxide, reprocessing, potency; Tables 16-21); assay type: physicochemical; conditions: for LS / Total Imp./Deg.: SSD water content study
# Method: The impact of the following stressors on the physical and chemical stability of the sofosbuvir/velpatasvir SSD/voxilaprevir SSD tablets were evaluated:
# (i) Voxilaprevir SSD and velpatasvir SSD, and sofosbuvir/velpatasvir SSD/voxilaprevir SSD tablet water content;
# (ii) Copovidone peroxide content in velpatasvir SSD and in voxilaprevir SSD (iii) Reprocessed velpatasvir SSD and voxilaprevir SSD;
# (iv) Voxilaprevir SSD and velpatasvir SSD potency (varying the ratio of velpatasvir or voxilaprevir to copovidone); and
# (v) Seeding sofosbuvir/velpatasvir SSD/voxilaprevir SSD tablets with crystalline voxilaprevir Form VIII and Form X drug substances.
# [2] = BCS classification and pH dependence of solubility; assay type: physicochemical
# [3] = open (no desiccant), 40° C./75% RH, 4 weeks
# [4] = tablets from SSDs with copovidone peroxides 544 ppm (VEL SSD), 655 ppm (VOX SSD), Initial, time 0
# [5] = tablets from SSDs with copovidone peroxides 544 ppm (VEL SSD), 655 ppm (VOX SSD), closed, 1 g desiccant, 25° C./60% RH, 12 weeks
# [6] = tablets from SSDs with copovidone peroxides 544 ppm (VEL SSD), 655 ppm (VOX SSD), closed, 1 g desiccant, 40° C./75% RH, 4 weeks
# [7] = tablets from SSDs with copovidone peroxides 544 ppm (VEL SSD), 655 ppm (VOX SSD), closed, 1 g desiccant, 40° C./75% RH, 12 weeks
# [8] = tablets from SSDs with copovidone peroxides 544 ppm (VEL SSD), 655 ppm (VOX SSD), open, no desiccant, 40° C./75% RH, 4 weeks
# [9] = tablets from VEL SSD 6.0% residual ethanol, VOX SSD 2.1% residual acetone, Initial, time 0
# [10] = tablets from VEL SSD 6.0% residual ethanol, VOX SSD 2.1% residual acetone, closed, 1 g desiccant, 25° C./60% RH, 12 weeks
# [11] = tablets from VEL SSD 6.0% residual ethanol, VOX SSD 2.1% residual acetone, closed, 1 g desiccant, 40° C./75% RH, 4 weeks
# [12] = tablets from VEL SSD 6.0% residual ethanol, VOX SSD 2.1% residual acetone, closed, 1 g desiccant, 40° C./75% RH, 12 weeks
# [13] = tablets from VEL SSD 6.0% residual ethanol, VOX SSD 2.1% residual acetone, open, no desiccant, 40° C./75% RH, 4 weeks
# [14] = tablets from VEL SSD 7.0% water, VOX SSD 3.2% water, Initial, time 0
# [15] = tablets from VEL SSD 7.0% water, VOX SSD 3.2% water, closed, 1 g desiccant, 25° C./60% RH, 12 weeks
# [16] = tablets from VEL SSD 7.0% water, VOX SSD 3.2% water, closed, 1 g desiccant, 40° C./75% RH, 4 weeks
# [17] = tablets from VEL SSD 7.0% water, VOX SSD 3.2% water, closed, 1 g desiccant, 40° C./75% RH, 12 weeks
# [18] = tablets from twice reprocessed VEL SSD and VOX SSD, Initial, time 0
# [19] = tablets from twice reprocessed VEL SSD and VOX SSD, closed, 1 g desiccant, 25° C./60% RH, 12 weeks
# [20] = tablets from twice reprocessed VEL SSD and VOX SSD, closed, 1 g desiccant, 40° C./75% RH, 4 weeks
# [21] = tablets from twice reprocessed VEL SSD and VOX SSD, closed, 1 g desiccant, 40° C./75% RH, 12 weeks
# [22] = tablets from twice reprocessed VEL SSD and VOX SSD, open, no desiccant, 40° C./75% RH, 4 weeks
smiles,measurement,setting,value
"CC(C)OC(=O)C(C)N[P@](=O)(OC[C@H]1O[C@@H](n2ccc(=O)[nH]c2=O)[C@](C)(F)[C@@H]1O)Oc1ccccc1 (stereo in doubt) [sofosbuvir, (S)-isopropyl 2-(((S)-(((2R,3R,4R,5R)-5-(2,4-dioxo-3,4-dihydropyrimidin-1(2H)-yl)-4-fluoro-3-hydroxy-4-methyltetrahydrofuran-2-yl)methoxy)(phenoxy)phosphoryl)amino)propanoate]",total impurities/degradation products,"[1]; SSD potency study, tablet Lots A-D, all conditions",0.0%
same,LS,[1]; Initial,100.5%
same,Total Imp./Deg.,[1]; Initial,0.0%
same,LS,[1]; [3],101.2%
same,Total Imp./Deg.,[1]; [3],0.0%
same,LS (%),"[1]; tablets Lot A (super-potent VEL SSD, super-potent VOX SSD), Initial, time 0",100.1%
same,LS (%),"[1]; tablets Lot A (super-potent VEL SSD, super-potent VOX SSD), closed, 1 g desiccant, 25° C./60% RH, 12 weeks",99.0%
same,LS (%),"[1]; tablets Lot A (super-potent VEL SSD, super-potent VOX SSD), closed, 1 g desiccant, 40° C./75% RH, 4 weeks",99.9%
same,LS (%),"[1]; tablets Lot A (super-potent VEL SSD, super-potent VOX SSD), closed, 1 g desiccant, 40° C./75% RH, 12 weeks",99.8%
same,LS (%),"[1]; tablets Lot A (super-potent VEL SSD, super-potent VOX SSD), open, without cap, 40° C./75% RH, 4 weeks",100.3%
same,LS (%),"[1]; tablets Lot B (sub-potent VEL SSD, sub-potent VOX SSD), Initial, time 0",99.9%
same,LS (%),"[1]; tablets Lot B (sub-potent VEL SSD, sub-potent VOX SSD), closed, 1 g desiccant, 25° C./60% RH, 12 weeks",99.4%
same,LS (%),"[1]; tablets Lot B (sub-potent VEL SSD, sub-potent VOX SSD), closed, 1 g desiccant, 40° C./75% RH, 4 weeks",99.8%
same,LS (%),"[1]; tablets Lot B (sub-potent VEL SSD, sub-potent VOX SSD), closed, 1 g desiccant, 40° C./75% RH, 12 weeks",98.7%
same,LS (%),"[1]; tablets Lot B (sub-potent VEL SSD, sub-potent VOX SSD), open, without cap, 40° C./75% RH, 4 weeks",100.1%
same,LS (%),"[1]; tablets Lot C (sub-potent VEL SSD, super-potent VOX SSD), Initial, time 0",99.5%
same,LS (%),"[1]; tablets Lot C (sub-potent VEL SSD, super-potent VOX SSD), closed, 1 g desiccant, 25° C./60% RH, 12 weeks",99.6%
same,LS (%),"[1]; tablets Lot C (sub-potent VEL SSD, super-potent VOX SSD), closed, 1 g desiccant, 40° C./75% RH, 4 weeks",99.6%
same,LS (%),"[1]; tablets Lot C (sub-potent VEL SSD, super-potent VOX SSD), closed, 1 g desiccant, 40° C./75% RH, 12 weeks",99.1%
same,LS (%),"[1]; tablets Lot C (sub-potent VEL SSD, super-potent VOX SSD), open, without cap, 40° C./75% RH, 4 weeks",99.4%
same,LS (%),"[1]; tablets Lot D (super-potent VEL SSD, sub-potent VOX SSD), Initial, time 0",100.0%
same,LS (%),"[1]; tablets Lot D (super-potent VEL SSD, sub-potent VOX SSD), closed, 1 g desiccant, 25° C./60% RH, 12 weeks",99.5%
same,LS (%),"[1]; tablets Lot D (super-potent VEL SSD, sub-potent VOX SSD), closed, 1 g desiccant, 40° C./75% RH, 4 weeks",100.1%
same,LS (%),"[1]; tablets Lot D (super-potent VEL SSD, sub-potent VOX SSD), closed, 1 g desiccant, 40° C./75% RH, 12 weeks",98.9%
same,LS (%),"[1]; tablets Lot D (super-potent VEL SSD, sub-potent VOX SSD), open, without cap, 40° C./75% RH, 4 weeks",99.8%
same,total impurities/degradation products,[1]; tablets from SSDs with copovidone 544 ppm (VEL SSD) and 655 ppm (VOX SSD) peroxides,0.0%
same,LS (%),[1]; [4],100.0%
same,Total Imp./Deg. (%),[1]; [4],0.0%
same,LS (%),[1]; [5],99.3%
same,Total Imp./Deg. (%),[1]; [5],0.0%
same,LS (%),[1]; [6],99.3%
same,Total Imp./Deg. (%),[1]; [6],0.0%
same,LS (%),[1]; [7],98.9%
same,Total Imp./Deg. (%),[1]; [7],0.0%
same,LS (%),[1]; [8],100.3%
same,Total Imp./Deg. (%),[1]; [8],0.0%
same,total impurities/degradation products,"[1]; tablets from VEL SSD 6.0% residual ethanol and VOX SSD 2.1% residual acetone, all conditions",0.0%
same,LS (%),[1]; [9],101.2%
same,Total Imp./Deg. (%),[1]; [9],0.0%
same,LS (%),[1]; [10],100.5%
same,Total Imp./Deg. (%),[1]; [10],0.0%
same,LS (%),[1]; [11],101.5%
same,Total Imp./Deg. (%),[1]; [11],0.0%
same,LS (%),[1]; [12],100.9%
same,Total Imp./Deg. (%),[1]; [12],0.0%
same,LS (%),[1]; [13],100.9%
same,Total Imp./Deg. (%),[1]; [13],0.0%
same,total impurities/degradation products,"[1]; tablets from VEL SSD 7.0% and VOX SSD 3.2% water content, all conditions",0.0%
same,LS (%),[1]; [14],100.5%
same,Total Imp./Deg. (%),[1]; [14],0.0%
same,LS (%),[1]; [15],99.9%
same,Total Imp./Deg. (%),[1]; [15],0.0%
same,LS (%),[1]; [16],101.6%
same,Total Imp./Deg. (%),[1]; [16],0.0%
same,LS (%),[1]; [17],100.4%
same,Total Imp./Deg. (%),[1]; [17],0.0%
same,LS (%),[1]; [18],100.7%
same,Total Imp./Deg. (%),[1]; [18],0.0%
same,total impurities/degradation products,"[1]; tablets from twice reprocessed VEL SSD and VOX SSD, all conditions",0.0%
same,LS (%),[1]; [19],99.9%
same,Total Imp./Deg. (%),[1]; [19],0.0%
same,LS (%),[1]; [20],100.3%
same,Total Imp./Deg. (%),[1]; [20],0.0%
same,LS (%),[1]; [21],99.1%
same,Total Imp./Deg. (%),[1]; [21],0.0%
same,LS (%),[1]; [22],96.4%
same,Total Imp./Deg. (%),[1]; [22],0.0%
same,BCS Class,[2],BCS Class 3
same,"aqueous solubility, pH dependence",[2],high and pH-independent

# From US11338007B2, “Combination formulation of three antiviral compounds” (priority 2016, dated 2022)
